The supplement of paper PMC10307832

Compound: C[C@@H](C(=O)N[C@@H](C1CCCCC1)C(=O)N2CCC[C@H]2C(=O)N[C@@H]3[C@@H](CC4=CC=CC=C34)OCC#CC#CCO[C@@H]5CC6=CC=CC=C6[C@@H]5NC(=O)[C@@H]7CCCN7C(=O)[C@H](C8CCCCC8)NC(=O)[C@H](C)NC)NC [AZD5582] + O=C(c1cc(Cc2n[nH]c(=O)c3ccccc23)ccc1F)N1CCN(C(=O)C2CC2)CC1 [Olaparib] (partner 8 µM)
Assay: relative viability (nuclei count vs DMSO), 5 days (fraction); higher = more cells survive
Conditions: first compound 0.001581 µM
In short: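 Five library-drug doses in √10 steps were combined with a fixed anchor-drug dose, or a single drug was given alone, by pin tool to lung cancer cell lines in 1536-well plates the day after seeding. Nuclei were stained and counted after 5 days. Relative viability is the nuclei count in treated wells over that in vehicle wells, taken as the median of duplicate plates.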

| Cell Line | relative viability |
| --- | --- |
| LK-2 | 0.63 |
| LOU-NH91 | 0.875 |
| LU99A | 0.279 |
| LXF-289 | 0.98 |
| NCI-H23 | 0.272 |
| NCI-H322M | 0.745 |
| NCI-H358 | 0.56 |
| NCI-H441 | 0.504 |
| NCI-H460 | 0.36 |
| NCI-H596 | 0.566 |
| NCI-H647 | 0.492 |
| NCI-H650 | 0.321 |
| NCI-H727 | 0.698 |
| NCI-H838 | 0.744 |
| NCI-H1355 | 0.68 |
| NCI-H1395 | 0.445 |
| NCI-H1437 | 0.711 |
| NCI-H1651 | 0.175 |
| NCI-H1666 | 0.766 |
| NCI-H1734 | 0.569 |
| NCI-H1755 | 0.843 |
| NCI-H1792 | 0.343 |
| NCI-H1793 | 0.674 |
| NCI-H1915 | 0.279 |
| NCI-H1944 | 0.379 |
| NCI-H1975 | 0.862 |
| NCI-H1993 | 0.982 |
| NCI-H2085 | 0.842 |

Same assay, conditions: first compound 0.005 µM

| Cell Line | relative viability |
| --- | --- |
| LK-2 | 0.702 |
| LOU-NH91 | 0.945 |
| LU99A | 0.264 |
| LXF-289 | 0.995 |
| NCI-H23 | 0.203 |
| NCI-H322M | 0.865 |
| NCI-H358 | 0.702 |
| NCI-H441 | 0.541 |
| NCI-H460 | 0.411 |
| NCI-H647 | 0.587 |
| NCI-H650 | 0.32 |
| NCI-H727 | 0.73 |
| NCI-H838 | 0.811 |
| NCI-H1355 | 0.728 |
| NCI-H1395 | 0.433 |
| NCI-H1437 | 0.649 |
| NCI-H1651 | 0.183 |
| NCI-H1666 | 0.745 |
| NCI-H1734 | 0.59 |
| NCI-H1755 | 0.966 |
| NCI-H1792 | 0.466 |
| NCI-H1793 | 1.08 |
| NCI-H1915 | 0.244 |
| NCI-H1944 | 0.403 |
| NCI-H1975 | 1.06 |
| NCI-H1993 | 1.16 |
| NCI-H2085 | 0.903 |

Same assay, conditions: first compound 0.01581 µM

| Cell Line | relative viability |
| --- | --- |
| LK-2 | 0.772 |
| LOU-NH91 | 0.928 |
| LU99A | 0.213 |
| LXF-289 | 0.953 |
| NCI-H23 | 0.3 |
| NCI-H322M | 0.692 |
| NCI-H358 | 0.616 |
| NCI-H441 | 0.603 |
| NCI-H460 | 0.345 |
| NCI-H596 | 0.802 |
